Source: patent US8871753B2, “Macrocyclic compounds and their use as kinase inhibitors” (Incyte Corporation, priority 2008, dated 2014)
Where a name gives a salt, the structure may show the parent alone. Read-outs that look alike come from different tables or passages of the source.

Legend:
Assay type in all cases: biochemical
[1] = biological target: T1, human JAK1 (a.a. 837-1142) (Homo sapiens, UniProt P23458); assay: In vitro JAK kinase assay (HTRF, phosphorylation of a biotinylated peptide), JAK1
T1 construct: human JAK1 (a.a. 837-1142); His tag (N); made in house; host or cells: insect cells (baculovirus)
T1 sequence (P23458 849-1154): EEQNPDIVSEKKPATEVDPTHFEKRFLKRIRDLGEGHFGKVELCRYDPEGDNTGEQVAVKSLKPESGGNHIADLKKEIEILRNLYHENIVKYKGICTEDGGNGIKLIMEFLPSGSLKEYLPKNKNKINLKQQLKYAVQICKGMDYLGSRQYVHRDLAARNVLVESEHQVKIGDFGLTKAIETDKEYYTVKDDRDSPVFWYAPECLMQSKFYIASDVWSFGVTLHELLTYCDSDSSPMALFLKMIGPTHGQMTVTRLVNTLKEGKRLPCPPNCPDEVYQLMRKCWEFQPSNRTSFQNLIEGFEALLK
Method in brief: (§1)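 Phosphorylation of a biotinylated peptide by the JAK kinase domain, detected by HTRF with Eu-Py20 and SA-APC. ATP was 90 μM for JAK1, 30 μM for JAK2 and 3 μM for JAK3. Reactions ran 1 h at room temperature and were stopped with EDTA, followed by 40 min antibody binding.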

[2] = biological target: T2, human JAK2 (a.a. 828-1132) (Homo sapiens, UniProt O60674); assay: In vitro JAK kinase assay (HTRF, phosphorylation of a biotinylated peptide), JAK2
T2 construct: JAK2 (a.a. 828-1132); His tag (N); made in house; host or cells: insect cells (baculovirus)
T2 sequence (O60674 828-1132): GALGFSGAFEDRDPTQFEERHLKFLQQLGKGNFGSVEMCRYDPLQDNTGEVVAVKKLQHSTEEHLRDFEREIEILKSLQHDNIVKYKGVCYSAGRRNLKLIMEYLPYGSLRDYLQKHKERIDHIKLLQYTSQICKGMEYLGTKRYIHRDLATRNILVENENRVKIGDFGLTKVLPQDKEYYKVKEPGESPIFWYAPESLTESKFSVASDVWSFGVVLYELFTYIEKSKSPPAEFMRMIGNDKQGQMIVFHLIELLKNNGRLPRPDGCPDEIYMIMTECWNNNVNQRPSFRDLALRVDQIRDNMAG
Method in brief: as §1

[3] = biological target: T3, human JAK3 (a.a. 781-1124) (Homo sapiens, UniProt P52333); assay: In vitro JAK kinase assay (HTRF, phosphorylation of a biotinylated peptide), JAK3
T3 construct: JAK3 (a.a. 781-1124); His tag (N); made in house; host or cells: insect cells (baculovirus)
T3 sequence (P52333 781-1124): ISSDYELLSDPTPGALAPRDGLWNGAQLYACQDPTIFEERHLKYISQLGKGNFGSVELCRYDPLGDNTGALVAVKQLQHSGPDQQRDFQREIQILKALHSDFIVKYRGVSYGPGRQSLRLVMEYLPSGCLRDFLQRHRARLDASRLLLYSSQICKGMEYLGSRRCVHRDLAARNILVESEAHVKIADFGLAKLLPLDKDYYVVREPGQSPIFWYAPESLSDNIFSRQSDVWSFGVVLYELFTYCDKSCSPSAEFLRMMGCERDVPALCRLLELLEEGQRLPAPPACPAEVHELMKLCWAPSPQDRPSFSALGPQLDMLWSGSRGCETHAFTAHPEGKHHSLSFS
Method in brief: as §1

TYK2 = TYK2 (Homo sapiens, UniProt P29597); assay: TYK2 kinase inhibition (Table A1)
Chain of TYK2 (P29597 whole entry): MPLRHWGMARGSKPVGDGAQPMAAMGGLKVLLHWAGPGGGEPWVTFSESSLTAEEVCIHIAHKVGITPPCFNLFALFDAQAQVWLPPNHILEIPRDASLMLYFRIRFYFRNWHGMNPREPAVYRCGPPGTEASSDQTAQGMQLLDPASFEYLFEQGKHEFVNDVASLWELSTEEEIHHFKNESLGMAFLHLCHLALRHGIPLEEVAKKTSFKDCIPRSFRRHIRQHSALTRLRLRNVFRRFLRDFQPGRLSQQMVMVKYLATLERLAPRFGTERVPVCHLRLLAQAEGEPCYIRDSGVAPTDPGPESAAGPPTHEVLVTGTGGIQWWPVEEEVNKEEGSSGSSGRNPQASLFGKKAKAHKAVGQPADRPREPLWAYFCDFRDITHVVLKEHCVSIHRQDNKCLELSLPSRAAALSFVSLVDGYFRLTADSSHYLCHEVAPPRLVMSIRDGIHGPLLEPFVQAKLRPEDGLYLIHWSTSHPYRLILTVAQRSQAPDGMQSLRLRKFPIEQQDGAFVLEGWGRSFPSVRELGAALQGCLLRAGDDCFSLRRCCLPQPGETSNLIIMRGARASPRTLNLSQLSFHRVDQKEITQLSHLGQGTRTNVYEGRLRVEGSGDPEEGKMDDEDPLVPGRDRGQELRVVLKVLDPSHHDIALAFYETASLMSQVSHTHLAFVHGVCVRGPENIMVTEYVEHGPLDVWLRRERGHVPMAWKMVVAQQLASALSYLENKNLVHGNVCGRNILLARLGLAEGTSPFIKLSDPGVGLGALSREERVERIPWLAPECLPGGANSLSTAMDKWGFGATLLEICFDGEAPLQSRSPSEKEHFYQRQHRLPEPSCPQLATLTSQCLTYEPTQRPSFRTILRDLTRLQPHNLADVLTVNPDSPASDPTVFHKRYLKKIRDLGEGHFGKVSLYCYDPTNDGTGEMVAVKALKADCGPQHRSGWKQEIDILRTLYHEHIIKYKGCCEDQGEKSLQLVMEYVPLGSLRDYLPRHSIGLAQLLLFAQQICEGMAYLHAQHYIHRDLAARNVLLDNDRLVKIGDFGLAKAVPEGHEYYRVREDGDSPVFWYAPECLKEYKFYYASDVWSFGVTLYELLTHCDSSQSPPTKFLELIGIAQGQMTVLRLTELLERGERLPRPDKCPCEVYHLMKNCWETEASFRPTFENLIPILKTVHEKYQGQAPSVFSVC

IC50 ([1]; Table D1, read-out: JAK1 IC50) [nM] | IC50 ([2]; Table D1) [nM] | IC50 ([3]; Table D1) [nM] | IC50 (TYK2; Table D1) [nM] | SMILES | further results
 |  |  |  | COC(=O)c1ccc2cc1CCc1cncc(c1)Nc1ncc(Cl)c(n1)N2 [Example C28, Methyl 6-chloro-2,4,8,18,22-pentaazatetracyclo[14.3.1.1(3,7).1(9,13)]docosa-1(20),3(22),4,6,9(21),10,12,16,18-nonaene-12-carboxylate] | IC50 ([1]; read-out: JAK1 IC50): 120 nM; IC50 [2]: 100 nM; IC50 [3]: > 200 nM; IC50 (TYK2): > 200 nM
200 | 185 | 130 | > 1000 | O=C(Cn1c(=O)oc2c3cc(cc21)Nc1nc(ncc1Cl)Nc1cccc(c1)CC3)N1CCOCC1 [Example D187, 4-Chloro-20-(2-morpholin-4-yl-2-oxoethyl)-18-oxa-2,6,8,20,25-pentaazapentacyclo[14.6.1.1(3,7).1(9,13).0(17,21)]pentacosa-1(23),3(25),4,6,9(24),10,12,16,21-nonaen-19-one trifluoroacetate] | 
 |  |  |  | O=C(Nc1cc2cc(c1)Nc1nc(ncc1Cl)Nc1cccc(c1)CC2)C1CCC1 [Example B211, N-[6-Chloro-2,4,8,22-tetraazatetracyclo[14.3.1.1(3,7).1(9,13)]docosa-1(20),3(22),4,6,9(21),10,12,16,18-nonaen-11-yl]cyclobutanecarboxamide trifluoroacetate] | IC50 ([1]; Table B1, read-out: JAK1 IC50): 56 nM; IC50 ([2]; Table B1): 20 nM; IC50 ([3]; Table B1): 135 nM; IC50 (TYK2; Table B1): 191 nM
42 | 37 | > 400 | > 400 | O=C(COc1ccc2cc1CCc1cncc(c1)Nc1ncc(Cl)c(n1)N2)N1CCN(C(=O)c2ccc(F)cc2F)CC1 [Example D259, 6-Chloro-12-{2-[4-(2,4-difluorobenzoyl)piperazin-1-yl]-2-oxoethoxy}-2,4,8,18,22-pentaazatetracyclo[14.3.1.1(3,7).1(9,13)]docosa-1(20),3(22),4,6,9(21),10,12,16,18-nonaene bis(trifluoroacetate)] | 
> 400 | 371 | > 400 | > 400 | O=C(Nc1ccccc1)N1CCC(COc2ccc3cc2CCc2cncc(c2)Nc2ncc(Cl)c(n2)N3)CC1 [Example D228, 4-({[6-Chloro-2,4,8,18,22-pentaazatetracyclo[14.3.1.1(3,7).1(9,13)]docosa-1(20),3(22),4,6,9(21),10,12,16,18-nonaen-12-yl]oxy}methyl)-N-phenylpiperidine-1-carboxamide bis(trifluoroacetate)] | 
8.1 | 49 | > 400 | 356 | N#Cc1ccccc1S(=O)(=O)N1CCN(C(=O)COc2ccc3cc2CCc2cncc(c2)Nc2ncc(Cl)c(n2)N3)CC1 [Example D254, 2-{[4-({[6-Chloro-2,4,8,18,22-pentaazatetracyclo[14.3.1.1(3,7).1(9,13)]docosa-1(20),3(22),4,6,9(21),10,12,16,18-nonaen-12-yl]oxy}acetyl)piperazin-1-yl]sulfonyl}benzonitrile bis(trifluoroacetate)] | 
8.6 | 83 | > 1000 | 226 | O=C(C[C@@H]1CCN(c2nc3cccnc3o2)C1)Nc1ccc2cc1CCc1cncc(c1)Nc1ncc(Cl)c(n1)N2 [Example D140, N-[6-Chloro-2,4,8,18,22-pentaazatetracyclo[14.3.1.1(3,7).1(9,13)]docosa-1(20),3(22),4,6,9(21),10,12,16,18-nonaen-12-yl]-2-[(3S)-1-[1,3]oxazolo[5,4-b]pyridin-2-ylpyrrolidin-3-yl]acetamide tris(trifluoroacetate)] | 

SMILES | IC50 ([1]; Table D1, read-out: JAK1 IC50) [nM] | IC50 ([2]; Table D1) [nM] | IC50 ([3]; Table D1) [nM] | IC50 (TYK2; Table D1) [nM] | further results
CC(=O)N1CCC(CCOc2ccc3cc2CCc2cncc(c2)Nc2ncc(Cl)c(n2)N3)CC1 [Example D161, 12-[2-(1-Acetylpiperidin-4-yl)ethoxy]-6-chloro-2,4,8,18,22-pentaazatetracyclo[14.3.1.1(3,7).1(9,13)]docosa-1(20),3(22),4,6,9(21),10,12,16,18-nonaene bis(trifluoroacetate)] |  | 276 | > 400 | > 400 | IC50 ([1]; JAK1 IC50 (nM), Table D1): 85 nM
